Experimental data as given in article PMC4291223, “Inhibitors of CLK Protein Kinases Suppress Cell Growth and Induce Apoptosis by Modulating Pre-mRNA Splicing” (PLoS ONE, 2015).

How the values were obtained:
[1] = system: COLO320DM cells; assay: Cell viability assay, COLO320DM; assay type: cell-based; conditions: Homo sapiens, COLO 320DM; COLO320DM colorectal cancer
[2] = biological target: T1, SRPK2 (Homo sapiens, UniProt P78362); assay: In vitro kinase assay (ADP-Glo), SRPK2; assay type: biochemical; conditions: 5 µM ATP
T1 construct: purchased Millipore
T1 sequence (P78362 whole entry): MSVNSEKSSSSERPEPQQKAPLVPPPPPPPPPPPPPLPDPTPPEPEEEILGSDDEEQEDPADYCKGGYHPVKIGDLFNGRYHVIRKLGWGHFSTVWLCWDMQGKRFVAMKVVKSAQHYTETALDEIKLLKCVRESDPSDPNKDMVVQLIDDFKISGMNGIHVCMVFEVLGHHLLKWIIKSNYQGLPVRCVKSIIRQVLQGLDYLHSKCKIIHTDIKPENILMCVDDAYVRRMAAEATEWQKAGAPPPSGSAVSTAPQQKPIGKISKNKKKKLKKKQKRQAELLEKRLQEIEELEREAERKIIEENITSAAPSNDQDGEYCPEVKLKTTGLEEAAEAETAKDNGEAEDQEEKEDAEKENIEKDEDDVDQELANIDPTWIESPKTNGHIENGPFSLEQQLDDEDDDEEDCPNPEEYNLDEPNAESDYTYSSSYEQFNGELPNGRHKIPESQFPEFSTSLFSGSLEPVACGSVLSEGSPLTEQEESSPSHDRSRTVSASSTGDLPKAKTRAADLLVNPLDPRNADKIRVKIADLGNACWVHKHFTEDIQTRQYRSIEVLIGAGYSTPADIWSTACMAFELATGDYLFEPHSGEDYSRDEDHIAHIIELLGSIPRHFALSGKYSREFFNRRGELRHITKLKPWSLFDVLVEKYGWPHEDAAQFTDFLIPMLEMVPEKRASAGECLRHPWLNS
Method: (§1) The ATP concentration for each assay was adjusted to the Km for each kinase. Kinase assays for SRPK1–3 and CLK1 were performed using the ADP-Glo™ assay (Promega, Madison, WI). The kinase buffer contained 25 mM HEPES (pH 7.5), 10 mM magnesium acetate, 1 mM DTT, 0.01% BSA, and 0.01% Tween-20. The reaction mixtures contained 50 ng/mL SRPK1, 100 ng/mL SRPK2 or SRPK3, or 300 ng/mL CLK1 and 3 μM substrate peptide [GRSRSRSRSRSRSRSR] (Thermo Scientific). After incubating the enzyme, peptide, and compounds for 10 min, kinase reactions were initiated by adding ATP to a final concentration of 5 µM, followed by incubation for 30 min (15 min for SRPK1). The kinase reactions were terminated by adding ADP-Glo™ reagent (Promega). ADP was detected using a kinase detection reagent (Promega). The kinase activity of CLK2 was measured using the LANCE® Ultra assay (Perkin-Elmer, Waltham, MA) with ADP-Glo assay buffer. The reaction mixtures contained 100 ng/mL CLK2 and 50 nM ULight™-myelin basic protein (MBP) peptide (Perkin-Elmer). After incubating the enzyme, peptide, and compounds for 5 min, kinase reactions were initiated by adding ATP to a final concentration of 20 μM, followed by incubation for 30 min. The enzyme reactions were terminated by adding 30 mM EDTA, and phosphorylated ULight-MBP peptides were detected using a europium-labeled anti-phospho-MBP antibody diluted with detection buffer (Perkin-Elmer). The plates were read using an EnVision 2102 multilabel reader (Perkin-Elmer). We defined the absorbance of the reaction without enzyme as 100% inhibitory activity and that of the complete reaction mixture as 0% inhibitory activity. The IC50 values were estimated using the “Sigmoidal dose-response (variable slope)” equation in GraphPad Prism 5 software (GraphPad Software, San Diego, CA), with the maximum and minimum of the curve constrained to 100 and 0, respectively.

[3] = system: S6K pre-mRNA splicing in COLO320DM cells; assay: S6K pre-mRNA splicing alteration (quantitative RT-PCR), COLO320DM; assay type: cell-based, human; conditions: ratio of S6K exons 6–8 to exons 6–7 is 0.1
From the text: (§2) To examine whether inhibition of a particular CLK and/or SRPK contributed to the alternative splicing of S6K pre-mRNA, we used an additional series of compounds with the same scaffold as Cpd-1, Cpd-2, and Cpd-3, but different selectivity. First, we examined the correlation between the enzymatic activity and the level of splicing alterations of S6K pre-mRNA for the individual compounds. We used the exon 7-skipped type of S6K variant to calibrate Rc0.1 values, i.e., the concentrations that induced 10% of the copy number of an alternative isoform compared with that of the canonical isoform. The inhibition of CLK1 and CLK2 activities was correlated with the splicing alteration activities (Rc0.1) (R^2 = 0.3353 and 0.4255, respectively). In contrast, there was no correlation between the activities of SRPKs and the Rc0.1 values (R^2 < 0.0468) (Fig. 3A). Next, we compared the levels of splicing alteration and growth inhibition of the compounds. […] Similar correlations between Rc0.1 and GI50 values were also obtained in seven different cancer cell lines after treatment with Cpd-2 or Cpd-3 (Table 2).
(§3) Total RNA was extracted using an RNeasy Miniprep Kit (Qiagen, Valencia, CA) in accordance with the manufacturer’s instructions. Reverse transcription was performed using a TaqMan Reverse Transcription Reagents Kit (Applied Biosystems, Carlsbad, CA). The PCR conditions were as follows: one cycle of 5 min at 95°C; 35 cycles of 30 s at 94°C, 30 s at 60°C, and 30 s at 72°C; and one cycle of 10 min at 72°C. The PCR products were separated in 2% agarose gels. Real-time PCR was performed using a TaqMan MGB probe (Applied Biosystems), and the amount of FAM fluorescence was measured as a function of the PCR cycle number (CT) using an ABI 7900 Real-time PCR System (Applied Biosystems). The expression level of each mRNA was normalized by that of GAPDH mRNA.

[4] = system: S6K pre-mRNA splicing in COLO205 cells; assay: S6K pre-mRNA splicing alteration (quantitative RT-PCR), COLO205; assay type: cell-based, human; conditions: ratio of S6K exons 6–8 to exons 6–7 is 0.1
From the text: as §2, §3

[5] = system: MDA-MB-468 cells; assay: Cell viability assay (CellTiter-Glo), MDA-MB-468; assay type: cell-based; conditions: Homo sapiens; MDA-MB-468 breast cancer, 72 h
Method: MDA-MB-468 cells (5 × 10^3) were seeded into 96-well plates and incubated overnight in 50 μL of culture medium. Next, 50 µL of each compound diluted in culture medium was added to the wells. After 72 h of incubation, viability was determined using the CellTiter-Glo Luminescent Cell Viability Assay (Promega) according to the manufacturer’s instructions. The GI50 values were calculated using GraphPad Prism 5 software with a sigmoid dose-response curve.

[6] = biological target: T2, CLK1 (Homo sapiens, UniProt P49759); assay: In vitro kinase assay (ADP-Glo), CLK1; assay type: biochemical; conditions: for IC50: 5 µM ATP; for activity for CLK1 relative to Cpd-1: stronger than Cpd-1
T2 construct: purchased Life Technologies
T2 sequence (P49759 whole entry): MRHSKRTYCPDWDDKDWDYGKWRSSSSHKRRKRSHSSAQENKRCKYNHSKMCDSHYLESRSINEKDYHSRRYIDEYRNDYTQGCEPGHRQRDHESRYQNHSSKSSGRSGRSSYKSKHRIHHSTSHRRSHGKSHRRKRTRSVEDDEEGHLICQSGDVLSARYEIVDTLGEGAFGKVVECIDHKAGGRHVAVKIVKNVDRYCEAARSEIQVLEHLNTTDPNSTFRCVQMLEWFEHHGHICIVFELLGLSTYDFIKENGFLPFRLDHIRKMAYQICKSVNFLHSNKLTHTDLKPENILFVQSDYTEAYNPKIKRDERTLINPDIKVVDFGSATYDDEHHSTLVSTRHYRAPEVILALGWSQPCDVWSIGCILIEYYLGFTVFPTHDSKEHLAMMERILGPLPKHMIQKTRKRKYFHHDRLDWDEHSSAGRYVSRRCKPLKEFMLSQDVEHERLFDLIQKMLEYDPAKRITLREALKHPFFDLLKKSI
Method: as §1

[7] = system: S6K pre-mRNA splicing in NCI-H23 cells; assay: S6K pre-mRNA splicing alteration (quantitative RT-PCR), NCI-H23; assay type: cell-based, human; conditions: ratio of S6K exons 6–8 to exons 6–7 is 0.1
From the text: as §2, §3

| SMILES | GI50 [1] [nM] | IC50 [2] [nM] | Rc0.1 [3] [µM] | Rc0.1 [4] [µM] | GI50 [5] [nM] | IC50 [6] [nM] | Rc0.1 [7] [µM] | activity for CLK1 relative to Cpd-1 [6] [fold] |
| --- | --- | --- | --- | --- | --- | --- | --- | --- |
| CC(C)(CCc1nnn[nH]1)c1ccc(C(=O)Nc2cn3cc(C(F)(F)F)ccc3n2)cc1 [Cpd-1, 4-(2-methyl-4-(1H-tetrazol-5-yl)butan-2-yl)-N-(6-(trifluoromethyl)imidazo[1,2-a]pyridin-2-yl)benzamide] | 43000 | 75 | >10 | >10 | 30500 | 16 | >10 |  |
| CC(C)(C)c1ccc(C(=O)Nc2cn3cc(-c4cn[nH]c4)ccc3n2)cn1 [Cpd-2, 6-tert-butyl-N-(6-(1H-pyrazol-4-yl)imidazo[1,2-a]pyridin-2-yl)nicotinamide] | 600 | 310 | 0.9 | 1.6 | 3000 | 1.1 | 0.9 | 10 |
| CC(C)(CO)c1ccc(C(=O)Nc2cn3cc(-c4cn[nH]c4)ccc3n2)cc1 [Cpd-3, 4-(1-hydroxy-2-methylpropan-2-yl)-N-(6-(1H-pyrazol-4-yl)imidazo[1,2-a]pyridin-2-yl)benzamide] | 1500 | 260 | 1.1 | 2.6 | 3400 | 1.1 | 1.1 | 10 |
